Test results published in ChEMBL document CHEMBL5291721, “A preclinical secondary pharmacology resource illuminates target-adverse drug reaction associations of marketed drugs” (Nat Commun, 2023).

Legend:
[1] = target: T1, Alpha-2A adrenergic receptor (Homo sapiens, UniProt P08913); type: functional, cell-based
T1 sequence (P08913 whole entry): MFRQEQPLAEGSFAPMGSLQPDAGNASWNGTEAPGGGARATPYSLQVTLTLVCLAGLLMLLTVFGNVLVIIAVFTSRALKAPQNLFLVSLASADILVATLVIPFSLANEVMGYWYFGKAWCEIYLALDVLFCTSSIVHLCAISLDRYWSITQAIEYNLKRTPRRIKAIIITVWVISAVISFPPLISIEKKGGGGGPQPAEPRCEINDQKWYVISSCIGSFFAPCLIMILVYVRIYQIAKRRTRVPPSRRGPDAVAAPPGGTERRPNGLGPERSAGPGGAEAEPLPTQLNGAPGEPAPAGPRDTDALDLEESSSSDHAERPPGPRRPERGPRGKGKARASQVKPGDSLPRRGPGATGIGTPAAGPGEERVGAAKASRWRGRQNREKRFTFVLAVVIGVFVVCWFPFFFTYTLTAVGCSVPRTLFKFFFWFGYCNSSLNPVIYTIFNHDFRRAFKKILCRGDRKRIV

[2] = target: Growth hormone secretagogue receptor type 1 (Homo sapiens, UniProt Q92847)
Growth hormone secretagogue receptor type 1, sequence (Q92847 whole entry): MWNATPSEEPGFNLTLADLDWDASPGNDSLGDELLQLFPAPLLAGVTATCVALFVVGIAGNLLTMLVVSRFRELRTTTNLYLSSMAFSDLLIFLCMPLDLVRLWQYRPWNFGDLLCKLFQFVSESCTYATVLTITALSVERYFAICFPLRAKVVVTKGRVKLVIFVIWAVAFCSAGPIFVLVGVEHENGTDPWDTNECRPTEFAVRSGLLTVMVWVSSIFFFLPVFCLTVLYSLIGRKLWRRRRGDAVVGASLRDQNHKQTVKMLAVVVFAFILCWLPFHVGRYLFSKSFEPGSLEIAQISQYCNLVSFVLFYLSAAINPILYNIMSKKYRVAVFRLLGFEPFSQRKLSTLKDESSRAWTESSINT

[3] = target: Sodium-dependent dopamine transporter (Homo sapiens, UniProt Q01959)
Sodium-dependent dopamine transporter, sequence (Q01959 whole entry): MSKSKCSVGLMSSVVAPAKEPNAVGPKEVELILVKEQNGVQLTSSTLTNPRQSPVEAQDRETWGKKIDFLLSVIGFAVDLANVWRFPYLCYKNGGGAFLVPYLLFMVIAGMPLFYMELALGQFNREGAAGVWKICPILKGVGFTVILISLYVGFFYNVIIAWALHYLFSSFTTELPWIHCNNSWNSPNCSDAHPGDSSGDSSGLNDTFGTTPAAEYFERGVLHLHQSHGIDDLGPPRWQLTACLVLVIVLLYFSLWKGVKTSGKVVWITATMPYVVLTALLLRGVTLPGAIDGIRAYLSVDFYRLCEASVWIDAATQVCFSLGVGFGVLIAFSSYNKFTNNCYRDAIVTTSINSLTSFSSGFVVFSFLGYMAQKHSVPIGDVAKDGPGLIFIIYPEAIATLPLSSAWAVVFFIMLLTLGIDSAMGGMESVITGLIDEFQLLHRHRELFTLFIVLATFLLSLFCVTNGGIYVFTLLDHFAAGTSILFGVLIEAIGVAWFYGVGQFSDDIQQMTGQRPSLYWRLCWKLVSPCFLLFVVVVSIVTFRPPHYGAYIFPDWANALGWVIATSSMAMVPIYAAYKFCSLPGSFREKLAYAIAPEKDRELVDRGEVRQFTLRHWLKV

Bile salt export pump = Bile salt export pump (Homo sapiens, UniProt O95342); type: functional
Bile salt export pump, sequence (O95342 whole entry): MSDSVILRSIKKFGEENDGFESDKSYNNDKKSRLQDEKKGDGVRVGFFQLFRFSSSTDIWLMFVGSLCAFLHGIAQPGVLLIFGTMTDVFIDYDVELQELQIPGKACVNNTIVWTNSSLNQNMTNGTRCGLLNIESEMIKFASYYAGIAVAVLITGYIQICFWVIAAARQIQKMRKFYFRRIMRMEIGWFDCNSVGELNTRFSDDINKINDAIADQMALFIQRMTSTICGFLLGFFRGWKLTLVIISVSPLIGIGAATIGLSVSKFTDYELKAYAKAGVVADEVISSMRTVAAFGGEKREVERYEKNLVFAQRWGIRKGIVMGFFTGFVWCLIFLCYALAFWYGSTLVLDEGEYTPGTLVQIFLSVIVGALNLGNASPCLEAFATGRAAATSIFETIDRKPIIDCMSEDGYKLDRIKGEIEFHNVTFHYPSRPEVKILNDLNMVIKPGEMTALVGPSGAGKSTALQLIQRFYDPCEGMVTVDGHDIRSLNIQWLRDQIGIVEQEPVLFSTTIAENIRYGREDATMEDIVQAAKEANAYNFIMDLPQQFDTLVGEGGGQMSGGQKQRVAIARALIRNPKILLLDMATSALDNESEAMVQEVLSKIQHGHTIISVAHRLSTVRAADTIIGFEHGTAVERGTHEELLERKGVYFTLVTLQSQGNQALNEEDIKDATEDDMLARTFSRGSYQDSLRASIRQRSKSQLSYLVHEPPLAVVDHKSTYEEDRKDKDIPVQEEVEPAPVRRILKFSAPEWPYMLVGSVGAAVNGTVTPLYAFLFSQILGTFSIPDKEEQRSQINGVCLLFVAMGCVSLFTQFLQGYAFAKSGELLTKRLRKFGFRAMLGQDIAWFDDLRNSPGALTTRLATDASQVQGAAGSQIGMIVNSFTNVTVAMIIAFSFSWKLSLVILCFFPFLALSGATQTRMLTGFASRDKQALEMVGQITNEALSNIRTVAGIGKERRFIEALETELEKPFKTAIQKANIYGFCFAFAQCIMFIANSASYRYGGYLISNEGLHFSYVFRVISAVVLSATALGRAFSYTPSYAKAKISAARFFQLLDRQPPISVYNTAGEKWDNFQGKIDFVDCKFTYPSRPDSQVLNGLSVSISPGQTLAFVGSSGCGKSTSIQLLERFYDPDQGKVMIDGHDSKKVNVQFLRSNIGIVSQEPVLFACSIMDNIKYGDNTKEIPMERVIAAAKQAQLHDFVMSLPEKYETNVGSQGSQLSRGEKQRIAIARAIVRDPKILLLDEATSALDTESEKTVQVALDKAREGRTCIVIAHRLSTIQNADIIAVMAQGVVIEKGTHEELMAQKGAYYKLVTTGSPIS

[4] = target: T2, Prostaglandin G/H synthase 1 (Rattus norvegicus, UniProt Q63921); type: functional
T2 sequence (Q63921 whole entry): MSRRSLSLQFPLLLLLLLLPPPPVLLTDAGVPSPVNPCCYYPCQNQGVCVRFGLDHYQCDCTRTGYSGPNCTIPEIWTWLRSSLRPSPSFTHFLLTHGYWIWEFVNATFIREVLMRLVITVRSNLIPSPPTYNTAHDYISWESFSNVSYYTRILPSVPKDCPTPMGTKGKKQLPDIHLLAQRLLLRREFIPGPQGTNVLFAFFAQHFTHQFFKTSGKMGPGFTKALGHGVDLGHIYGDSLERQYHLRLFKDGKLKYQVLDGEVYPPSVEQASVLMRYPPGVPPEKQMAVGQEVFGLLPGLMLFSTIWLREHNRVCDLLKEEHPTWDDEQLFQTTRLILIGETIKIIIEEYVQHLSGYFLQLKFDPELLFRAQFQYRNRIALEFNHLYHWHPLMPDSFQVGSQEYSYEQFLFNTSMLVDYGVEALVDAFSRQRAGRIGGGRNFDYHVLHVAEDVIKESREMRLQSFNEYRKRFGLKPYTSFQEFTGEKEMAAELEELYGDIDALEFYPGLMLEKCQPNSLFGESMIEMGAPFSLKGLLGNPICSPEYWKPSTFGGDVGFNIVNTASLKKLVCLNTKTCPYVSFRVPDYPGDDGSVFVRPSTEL

[5] = target: T3, Cholecystokinin receptor type A (Homo sapiens, UniProt P32238)
T3 sequence (P32238 whole entry): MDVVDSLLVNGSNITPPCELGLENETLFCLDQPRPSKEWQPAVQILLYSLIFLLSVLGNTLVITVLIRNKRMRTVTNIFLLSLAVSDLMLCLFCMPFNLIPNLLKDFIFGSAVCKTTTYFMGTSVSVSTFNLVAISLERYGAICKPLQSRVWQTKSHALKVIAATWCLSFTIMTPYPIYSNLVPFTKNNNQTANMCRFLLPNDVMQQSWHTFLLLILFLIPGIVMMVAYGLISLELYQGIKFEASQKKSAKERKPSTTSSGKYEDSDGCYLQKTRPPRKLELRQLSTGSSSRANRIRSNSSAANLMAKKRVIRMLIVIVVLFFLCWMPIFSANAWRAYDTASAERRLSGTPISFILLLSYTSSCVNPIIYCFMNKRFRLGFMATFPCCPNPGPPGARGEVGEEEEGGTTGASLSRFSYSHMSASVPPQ

[6] = target: T4, 5-hydroxytryptamine receptor 1A (Homo sapiens, UniProt P08908); type: functional, cell-based
T4 sequence (P08908 whole entry): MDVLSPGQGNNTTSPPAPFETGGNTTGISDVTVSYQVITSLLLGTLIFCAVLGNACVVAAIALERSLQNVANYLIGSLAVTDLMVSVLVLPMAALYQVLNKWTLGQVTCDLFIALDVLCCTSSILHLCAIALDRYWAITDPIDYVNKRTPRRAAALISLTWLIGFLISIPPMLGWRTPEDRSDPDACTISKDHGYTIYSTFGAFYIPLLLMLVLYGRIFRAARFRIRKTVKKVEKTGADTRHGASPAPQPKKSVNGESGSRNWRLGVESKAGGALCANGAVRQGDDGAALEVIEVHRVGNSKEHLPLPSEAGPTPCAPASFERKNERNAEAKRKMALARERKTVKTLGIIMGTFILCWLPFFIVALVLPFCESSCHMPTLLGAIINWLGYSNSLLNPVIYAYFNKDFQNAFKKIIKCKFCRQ

Adenosine receptor A1 = target: T5, Adenosine receptor A1 (Homo sapiens, UniProt P30542)
T5 sequence (P30542 whole entry): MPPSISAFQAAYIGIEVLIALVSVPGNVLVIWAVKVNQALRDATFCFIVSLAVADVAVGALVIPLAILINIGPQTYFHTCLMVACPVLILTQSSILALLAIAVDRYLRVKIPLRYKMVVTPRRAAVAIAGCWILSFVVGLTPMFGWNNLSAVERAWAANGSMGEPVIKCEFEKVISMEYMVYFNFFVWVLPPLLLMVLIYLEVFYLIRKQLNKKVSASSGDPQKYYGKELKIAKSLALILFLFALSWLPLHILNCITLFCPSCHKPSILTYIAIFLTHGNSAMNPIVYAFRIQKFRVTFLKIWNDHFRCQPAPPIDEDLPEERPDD

Adenosine receptor A3 = target: T6, Adenosine receptor A3 (Homo sapiens, UniProt P0DMS8)
T6 sequence (P0DMS8 whole entry): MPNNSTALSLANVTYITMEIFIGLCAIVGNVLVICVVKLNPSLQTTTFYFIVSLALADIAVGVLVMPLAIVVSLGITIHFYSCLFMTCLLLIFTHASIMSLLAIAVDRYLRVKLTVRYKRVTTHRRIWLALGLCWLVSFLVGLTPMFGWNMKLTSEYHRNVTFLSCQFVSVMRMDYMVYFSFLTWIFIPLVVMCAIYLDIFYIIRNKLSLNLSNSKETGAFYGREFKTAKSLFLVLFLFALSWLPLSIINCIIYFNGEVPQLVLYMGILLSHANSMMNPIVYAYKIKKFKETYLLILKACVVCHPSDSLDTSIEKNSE
Also: assay procedure not described here.

| Structure (SMILES) | AC50 [1] [µM] | AC50 [2] [µM] | AC50 [3] [µM] | AC50 (Bile salt export pump) [µM] | AC50 [4] [µM] | AC50 [5] [µM] | AC50 [6] [µM] | AC50 (Adenosine receptor A1) [µM] | AC50 (Adenosine receptor A3) [µM] |
| --- | --- | --- | --- | --- | --- | --- | --- | --- | --- |
| Cc1ccc(C(=O)c2cc(O)c(O)c([N+](=O)[O-])c2)cc1 [TOLCAPONE] | > 10 | > 10 | 1.1 | 30.3 | 12.7 | > 10 | > 10 | 15.6 | 11.9 |
| CCCS(=O)(=O)Nc1ccc(F)c(C(=O)c2c[nH]c3ncc(-c4ccc(Cl)cc4)cc23)c1F [VEMURAFENIB] | > 30 | > 30 | > 30 | 37 | > 30 | > 30 | > 30 | > 30 | 18 |
| OCc1cc([C@@H](O)CNCCCCCCOCCOCc2c(Cl)cccc2Cl)ccc1O [VILANTEROL] | > 30 | 13 | 6.7 | 44 | > 30 | > 30 | > 30 | > 30 | 29 |

Results, then the compound that gave them:

| AC50 [1] [µM] | AC50 [2] [µM] | AC50 [3] [µM] | AC50 (Bile salt export pump) [µM] | AC50 [4] [µM] | AC50 [5] [µM] | AC50 [6] [µM] | AC50 (Adenosine receptor A1) [µM] | AC50 (Adenosine receptor A3) [µM] | Structure (SMILES) |
| --- | --- | --- | --- | --- | --- | --- | --- | --- | --- |
| > 10 | > 10 | > 10 | > 300 | > 10 | > 10 | > 10 | > 10 | > 10 | NC[C@H]1CC[C@H](C(=O)O)CC1 [TRANEXAMIC ACID] |
| > 30 | > 30 | > 30 | > 300 | > 30 | > 30 | > 30 | > 30 | > 30 | O=C(CCCCCCC(=O)Nc1ccccc1)NO [VORINOSTAT] |
